Measured values: ChEMBL document CHEMBL4818988, “Structure-Activity Relationships for the Marine Natural Product Sintokamides: Androgen Receptor N-Terminus Antagonists of Interest for Treatment of Metastatic Castration-Resistant Prostate Cancer” (J Nat Prod, 2021)
Active and inactive are the calls of the source. No cut-off for these calls is given here.

What was measured:
[1] = molecular target: T1, Androgen receptor (Homo sapiens) (UniProt P10275); test: (§1) Antagonist activity at AR in human LNCaP cells transfected with PSA assessed as inhibition of R1881-induced PSA luciferase activity pretreated with compound followed by R1881 addition and measured after 48 hrs by luciferase assay; type: cell-based; settings: filed as antagonist
T1 sequence (whole entry): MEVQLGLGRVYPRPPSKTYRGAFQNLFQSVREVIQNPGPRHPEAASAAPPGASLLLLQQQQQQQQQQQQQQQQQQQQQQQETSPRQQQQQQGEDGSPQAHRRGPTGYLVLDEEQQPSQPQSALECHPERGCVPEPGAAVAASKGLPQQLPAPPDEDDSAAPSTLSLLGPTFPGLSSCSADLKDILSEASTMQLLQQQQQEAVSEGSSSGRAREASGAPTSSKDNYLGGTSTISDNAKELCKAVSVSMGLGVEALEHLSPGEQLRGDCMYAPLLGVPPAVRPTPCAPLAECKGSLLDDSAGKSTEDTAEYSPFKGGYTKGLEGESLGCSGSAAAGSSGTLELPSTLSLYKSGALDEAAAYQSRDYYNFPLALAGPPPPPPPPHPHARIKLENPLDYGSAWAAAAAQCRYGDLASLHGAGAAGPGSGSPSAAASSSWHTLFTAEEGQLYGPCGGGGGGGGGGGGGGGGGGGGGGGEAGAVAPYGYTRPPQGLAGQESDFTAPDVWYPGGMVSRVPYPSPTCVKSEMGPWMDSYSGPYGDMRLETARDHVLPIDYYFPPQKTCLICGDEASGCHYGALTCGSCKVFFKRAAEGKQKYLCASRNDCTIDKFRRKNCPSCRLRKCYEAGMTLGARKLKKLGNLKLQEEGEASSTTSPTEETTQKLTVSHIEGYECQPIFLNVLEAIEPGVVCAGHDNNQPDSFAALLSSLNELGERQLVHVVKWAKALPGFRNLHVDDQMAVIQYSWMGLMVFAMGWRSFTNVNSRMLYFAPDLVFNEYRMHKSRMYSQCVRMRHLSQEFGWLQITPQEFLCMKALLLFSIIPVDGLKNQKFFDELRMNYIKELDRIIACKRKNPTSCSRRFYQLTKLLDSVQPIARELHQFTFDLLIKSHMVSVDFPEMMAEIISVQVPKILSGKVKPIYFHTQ

[2] = molecular target: T1, Androgen receptor (Homo sapiens); test: Antagonist activity at AR in human LNCaP cells transfected with PSA assessed as inhibition of R1881-induced PSA luciferase activity pretreated with compound followed by R1881 addition at 10 uM and measured after 48 hrs by luciferase assay; type: cell-based
[3] = molecular target: T1, Androgen receptor (Homo sapiens); test: Antagonist activity at AR in human LNCaP cells transfected with PSA assessed as inhibition of R1881-induced PSA luciferase activity pretreated with compound followed by R1881 addition at 25 uM and measured after 48 hrs by luciferase assay; type: cell-based
[4] = molecular target: T1, Androgen receptor (Homo sapiens); test: Antagonist activity at AR in human LNCaP cells transfected with PSA assessed as inhibition of R1881-induced PSA luciferase activity pretreated with compound followed by R1881 addition at 50 uM and measured after 48 hrs by luciferase assay; type: cell-based
[5] = molecular target: T1, Androgen receptor (Homo sapiens); test: Antagonist activity at AR in human LNCaP cells transfected with PSA assessed as inhibition of R1881-induced PSA luciferase activity pretreated with compound followed by R1881 addition at 5 uM and measured after 48 hrs by luciferase assay; type: cell-based
[6] = molecular target: T1, Androgen receptor (Homo sapiens); test: Antagonist activity at AR in human LNCaP cells transfected with PSA assessed as inhibition of R1881-induced PSA luciferase activity pretreated with compound followed by R1881 addition at 15 uM and measured after 48 hrs by luciferase assay; type: cell-based
[7] = molecular target: T1, Androgen receptor (Homo sapiens); test: Antagonist activity at AR in human LNCaP cells transfected with PSA assessed as inhibition of R1881-induced PSA luciferase activity pretreated with compound followed by R1881 addition at 35 uM and measured after 48 hrs by luciferase assay; type: cell-based
Androgen receptor = molecular target: T2, Androgen receptor (Homo sapiens, UniProt P10275); test: as §1; type: cell-based
T2 sequence (P10275 whole entry): T1 sequence (whole entry)

PC-3 = test: Cytotoxicity against human PC3 cells assessed as reduction in cell viability after 72 hrs by Alamar blue assay; type: functional, cell-based; settings: PC-3, 72 h
DU-145 = test: Cytotoxicity against human DU145 cells assessed as reduction in cell viability after 72 hrs by Alamar blue assay; type: functional, cell-based; settings: DU-145, 72 h

CCC(=O)N[C@H](CCC(Cl)(Cl)Cl)C(=O)N1C(=O)C=C(OC)[C@H]1CCC(Cl)(Cl)Cl
Activity [1]: Dose-Dependent Effect

CCC(=O)N[C@H](CCCCl)C(=O)N1C(=O)C=C(OC)[C@@H]1CCCCl
Activity [2]: inactive
Activity [3]: inactive
Activity [4]: inactive

CCC(=O)N[C@H](C[C@H](C)C(Cl)(Cl)Cl)C(=O)N1C(=O)C=C(OC)[C@@H]1C[C@H](C)C(Cl)(Cl)Cl
Activity ([5]; filed as antagonist): Active
Activity ([2]; filed as antagonist): Active

CCC(=O)N[C@H](CC(C)C)C(=O)N1C(=O)C=C(OC)[C@@H]1CC(C)C
Activity [5]: inactive
Activity [6]: inactive
Activity [7]: inactive

CCC(=O)N[C@H](C[C@H](C)C(Cl)(Cl)Cl)C(=O)N1C(=O)C=C(OC)[C@@H]1C[C@H](C)C(Cl)Cl
Activity ([5]; filed as antagonist): Active
Activity ([2]; filed as antagonist): Active
IC50 (Androgen receptor): 6.5 µM
IC50 (PC-3): 29 µM
IC50 (DU-145): > 35 µM

CCC(=O)N[C@H](CCC(Cl)(Cl)Cl)C(=O)N1C(=O)C=C(OC)[C@@H]1CCC(Cl)(Cl)Cl
Activity [1]: Dose-Dependent Effect

CCC(=O)N[C@H](CCC(Cl)Cl)C(=O)N1C(=O)C=C(OC)[C@@H]1CCC(Cl)Cl
Activity [1]: Dose-Dependent Effect

CCC(=O)N[C@H](CCC(Cl)Cl)C(=O)N1C(=O)C=C(OC)[C@H]1CCC(Cl)Cl
Activity [1]: Dose-Dependent Effect
